The values below are quoted from earlier work in patent publication US11452288B1, “Innocuous sterilant using hemocyanin and functionalized fullerenes with broad-spectrum intracellular and interstitial microbiocidal and radical scavenging effects for packaged matter, biologics and organics including liquids, gases, tissue, organs, cells, and limbs with copper mediated oxygenation …” (priority 2022, dated 2022).

Data set [1] relates to fungal donor rim cultures. Conditions: additive to Optisol-GS, compared with Optisol-GS alone.
The next data set concerns endothelial. To be noted: optimal antifungal concentrations in the nutrient media.

Turning to `C[C@@H](c1ncncc1F)[C@](O)(Cn1cncn1)c1ccc(F)cc1F` [voriconazole], in data set [1], the “rate of positive fungal donor rim cultures” value is listed as “significant reduction”.

In the case of `C[C@@H]1[C@H](O)[C@@H](C)/C=C/C=C/C=C/C=C/C=C/C=C/C=C/[C@H](O[C@@H]2O[C@H](C)[C@@H](O)[C@H](N)[C@@H]2O)C[C@@H]2O[C@](O)(C[C@@H](O)C[C@@H](O)[C@H](O)CC[C@@H](O)C[C@@H](O)CC(=O)O[C@H]1C)C[C@H](O)[C@H]2C(=O)O` [Amphotericin B], the endothelial toxicity result in the data set on endothelial is “significant endothelial toxicity”.
